Measurements taken from patent publication US10710996B2, “Pyrido-azaheterecydic compound and preparation method and use thereof” (SHANGHAI INSTITUTE OF MATERIA MEDICA, CHINESE ACADEMY OF …, priority 2015, dated 2020).
Read-outs that look alike come from different tables or passages of the source. Each block holds one compound with its values, some of them ahead of it.

What was measured:
[1] = biological target: FGFR1 (Homo sapiens, UniProt P11362); experiment: Tyrosine kinase inhibition rate (ELISA), FGFR1; type: biochemical; conditions: 1 μM
Sequence of FGFR1 (P11362 22-822, species assumed): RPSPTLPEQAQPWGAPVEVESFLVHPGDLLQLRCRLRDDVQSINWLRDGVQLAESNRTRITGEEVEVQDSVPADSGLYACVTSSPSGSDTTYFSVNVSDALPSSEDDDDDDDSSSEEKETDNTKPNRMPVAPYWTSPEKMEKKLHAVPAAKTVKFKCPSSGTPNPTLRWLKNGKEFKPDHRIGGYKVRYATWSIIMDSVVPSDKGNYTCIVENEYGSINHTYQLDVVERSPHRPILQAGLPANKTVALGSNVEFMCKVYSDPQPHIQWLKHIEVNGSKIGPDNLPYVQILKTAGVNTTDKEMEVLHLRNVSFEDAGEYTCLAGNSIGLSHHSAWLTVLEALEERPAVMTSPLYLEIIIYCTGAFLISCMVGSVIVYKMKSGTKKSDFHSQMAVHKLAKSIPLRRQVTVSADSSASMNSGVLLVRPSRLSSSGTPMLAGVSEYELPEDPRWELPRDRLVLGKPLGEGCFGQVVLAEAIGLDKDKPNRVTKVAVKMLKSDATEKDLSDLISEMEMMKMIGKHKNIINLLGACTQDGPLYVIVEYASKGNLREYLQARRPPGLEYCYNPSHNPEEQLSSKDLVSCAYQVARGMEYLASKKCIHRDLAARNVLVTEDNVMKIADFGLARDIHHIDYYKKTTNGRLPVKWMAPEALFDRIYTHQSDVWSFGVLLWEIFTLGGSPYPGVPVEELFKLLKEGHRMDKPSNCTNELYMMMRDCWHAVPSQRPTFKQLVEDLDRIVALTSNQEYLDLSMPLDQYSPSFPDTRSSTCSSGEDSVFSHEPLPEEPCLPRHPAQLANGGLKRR

[2] = biological target: Flt-1 (Homo sapiens, UniProt P17948); experiment: Tyrosine kinase inhibition rate (ELISA), Flt-1; type: biochemical; conditions: read-out: Inhibtion rate (%) Flt-1
[3] = biological target: PDGFR-α (Homo sapiens, UniProt P16234); experiment: Tyrosine kinase inhibition rate (ELISA), PDGFR-α; type: biochemical; conditions: read-out: Inhibtion rate (%) PDGFR-α
[4] = biological target: PDGFR-β (Homo sapiens, UniProt P09619); experiment: Tyrosine kinase inhibition rate (ELISA), PDGFR-β; type: biochemical; conditions: read-out: Inhibtion rate (%) PDGFR-β
Sequence of PDGFR-β (P09619 33-1106, species assumed): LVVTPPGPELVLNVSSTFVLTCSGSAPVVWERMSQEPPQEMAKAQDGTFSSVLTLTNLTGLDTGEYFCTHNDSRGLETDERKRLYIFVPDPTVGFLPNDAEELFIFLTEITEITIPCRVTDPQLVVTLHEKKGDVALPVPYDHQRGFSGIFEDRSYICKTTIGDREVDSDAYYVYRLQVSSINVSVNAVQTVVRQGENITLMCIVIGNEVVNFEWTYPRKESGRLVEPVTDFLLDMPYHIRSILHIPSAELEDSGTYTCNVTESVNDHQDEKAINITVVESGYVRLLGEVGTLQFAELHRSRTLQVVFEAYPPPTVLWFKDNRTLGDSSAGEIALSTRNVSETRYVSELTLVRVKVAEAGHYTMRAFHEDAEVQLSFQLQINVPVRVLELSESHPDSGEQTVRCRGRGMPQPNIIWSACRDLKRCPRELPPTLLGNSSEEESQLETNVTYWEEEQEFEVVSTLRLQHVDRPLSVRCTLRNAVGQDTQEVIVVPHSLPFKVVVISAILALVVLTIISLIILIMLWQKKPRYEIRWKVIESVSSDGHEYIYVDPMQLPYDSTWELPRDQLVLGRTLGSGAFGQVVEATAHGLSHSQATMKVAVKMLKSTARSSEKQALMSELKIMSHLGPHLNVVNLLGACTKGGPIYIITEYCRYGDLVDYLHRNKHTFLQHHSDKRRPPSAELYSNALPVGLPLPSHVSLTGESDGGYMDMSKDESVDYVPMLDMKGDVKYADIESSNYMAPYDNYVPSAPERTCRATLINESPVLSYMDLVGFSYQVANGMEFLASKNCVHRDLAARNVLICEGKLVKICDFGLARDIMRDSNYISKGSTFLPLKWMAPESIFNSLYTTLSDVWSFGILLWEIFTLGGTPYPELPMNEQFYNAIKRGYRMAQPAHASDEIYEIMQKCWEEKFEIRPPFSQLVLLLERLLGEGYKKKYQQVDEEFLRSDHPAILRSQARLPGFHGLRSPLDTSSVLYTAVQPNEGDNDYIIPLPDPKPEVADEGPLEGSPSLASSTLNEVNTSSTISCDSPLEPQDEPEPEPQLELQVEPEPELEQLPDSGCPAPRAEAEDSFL

[5] = biological target: RET (Homo sapiens, UniProt P07949); experiment: Tyrosine kinase inhibition rate (ELISA), RET; type: biochemical; conditions: read-out: Inhibtion rate (%) RET
Sequence of RET (P07949 29-1114, species assumed): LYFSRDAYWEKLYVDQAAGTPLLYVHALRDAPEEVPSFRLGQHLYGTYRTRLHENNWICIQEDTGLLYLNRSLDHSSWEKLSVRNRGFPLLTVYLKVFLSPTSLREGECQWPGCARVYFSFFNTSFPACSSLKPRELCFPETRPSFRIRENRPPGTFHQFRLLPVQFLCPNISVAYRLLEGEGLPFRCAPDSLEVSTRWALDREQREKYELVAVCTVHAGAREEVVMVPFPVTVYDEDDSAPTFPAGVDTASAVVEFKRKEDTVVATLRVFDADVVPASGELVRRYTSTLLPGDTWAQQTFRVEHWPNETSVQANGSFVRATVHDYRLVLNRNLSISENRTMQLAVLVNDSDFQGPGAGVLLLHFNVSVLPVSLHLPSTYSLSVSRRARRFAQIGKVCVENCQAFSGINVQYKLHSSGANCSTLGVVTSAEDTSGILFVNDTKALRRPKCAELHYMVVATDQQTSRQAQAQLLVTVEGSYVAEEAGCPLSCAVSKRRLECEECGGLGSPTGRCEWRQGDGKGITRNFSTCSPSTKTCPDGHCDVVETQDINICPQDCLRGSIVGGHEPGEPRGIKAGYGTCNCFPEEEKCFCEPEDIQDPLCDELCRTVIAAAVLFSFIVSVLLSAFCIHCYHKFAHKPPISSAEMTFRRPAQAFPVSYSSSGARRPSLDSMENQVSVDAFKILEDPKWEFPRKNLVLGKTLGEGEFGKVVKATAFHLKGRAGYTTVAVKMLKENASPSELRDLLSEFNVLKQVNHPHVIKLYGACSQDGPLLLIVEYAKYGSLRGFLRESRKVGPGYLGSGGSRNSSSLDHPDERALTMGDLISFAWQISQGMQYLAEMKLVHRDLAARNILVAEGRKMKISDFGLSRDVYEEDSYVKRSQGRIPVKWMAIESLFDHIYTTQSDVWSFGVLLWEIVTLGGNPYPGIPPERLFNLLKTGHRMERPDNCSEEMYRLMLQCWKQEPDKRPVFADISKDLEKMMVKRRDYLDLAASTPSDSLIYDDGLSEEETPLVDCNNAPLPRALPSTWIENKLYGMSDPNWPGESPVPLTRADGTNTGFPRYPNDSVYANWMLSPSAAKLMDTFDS

[6] = tested on: human lung cancer EBC-1 xenograft tumor; experiment: Growth inhibition of subcutaneous xenograft tumor of human lung cancer EBC-1 in nude mice; type: in vivo; conditions: 50 mg/kg qd/21 po
Protocol: EBC-1 cells were subcutaneously inoculated into the armpit on the right side of the nude mice in an amount of 5×10^6/mouse respectively to form xenograft tumor, which were then passaged in nude mice for three generations. Tumor tissue that was growing vigorously was cut into about 1.5 mm^3 under sterile conditions, and subcutaneously inoculated into the armpit on the right side of the nude mice, and the diameter of the xenograft tumor was measured with a vernier caliper. The diameter of the subcutaneous xenograft tumor in nude mice was measured with a vernier caliper. […] The diameter of xenograft tumor was measured twice a week and the body weight of mice was weighed during the whole experiment. The tumor volume (TV) was calculated by the following equation: TV=½×a×b^2, wherein a and b represent the length and width, respectively. The relative tumor volume (RTV) was calculated based on the measured results, and the calculation equation thereof is: RTV=Vt/V0, wherein V0 is the tumor volume measured when the mice were divided in different cages and administered (i.e., d0) and Vt is the tumor volume measured each time.

[7] = biological target: ErbB4 (Homo sapiens, UniProt Q15303); experiment: Tyrosine kinase inhibition rate (ELISA), ErbB4; type: biochemical; conditions: read-out: Inhibtion rate (%) ErbB4
Sequence of ErbB4 (Q15303 26-1308, species assumed): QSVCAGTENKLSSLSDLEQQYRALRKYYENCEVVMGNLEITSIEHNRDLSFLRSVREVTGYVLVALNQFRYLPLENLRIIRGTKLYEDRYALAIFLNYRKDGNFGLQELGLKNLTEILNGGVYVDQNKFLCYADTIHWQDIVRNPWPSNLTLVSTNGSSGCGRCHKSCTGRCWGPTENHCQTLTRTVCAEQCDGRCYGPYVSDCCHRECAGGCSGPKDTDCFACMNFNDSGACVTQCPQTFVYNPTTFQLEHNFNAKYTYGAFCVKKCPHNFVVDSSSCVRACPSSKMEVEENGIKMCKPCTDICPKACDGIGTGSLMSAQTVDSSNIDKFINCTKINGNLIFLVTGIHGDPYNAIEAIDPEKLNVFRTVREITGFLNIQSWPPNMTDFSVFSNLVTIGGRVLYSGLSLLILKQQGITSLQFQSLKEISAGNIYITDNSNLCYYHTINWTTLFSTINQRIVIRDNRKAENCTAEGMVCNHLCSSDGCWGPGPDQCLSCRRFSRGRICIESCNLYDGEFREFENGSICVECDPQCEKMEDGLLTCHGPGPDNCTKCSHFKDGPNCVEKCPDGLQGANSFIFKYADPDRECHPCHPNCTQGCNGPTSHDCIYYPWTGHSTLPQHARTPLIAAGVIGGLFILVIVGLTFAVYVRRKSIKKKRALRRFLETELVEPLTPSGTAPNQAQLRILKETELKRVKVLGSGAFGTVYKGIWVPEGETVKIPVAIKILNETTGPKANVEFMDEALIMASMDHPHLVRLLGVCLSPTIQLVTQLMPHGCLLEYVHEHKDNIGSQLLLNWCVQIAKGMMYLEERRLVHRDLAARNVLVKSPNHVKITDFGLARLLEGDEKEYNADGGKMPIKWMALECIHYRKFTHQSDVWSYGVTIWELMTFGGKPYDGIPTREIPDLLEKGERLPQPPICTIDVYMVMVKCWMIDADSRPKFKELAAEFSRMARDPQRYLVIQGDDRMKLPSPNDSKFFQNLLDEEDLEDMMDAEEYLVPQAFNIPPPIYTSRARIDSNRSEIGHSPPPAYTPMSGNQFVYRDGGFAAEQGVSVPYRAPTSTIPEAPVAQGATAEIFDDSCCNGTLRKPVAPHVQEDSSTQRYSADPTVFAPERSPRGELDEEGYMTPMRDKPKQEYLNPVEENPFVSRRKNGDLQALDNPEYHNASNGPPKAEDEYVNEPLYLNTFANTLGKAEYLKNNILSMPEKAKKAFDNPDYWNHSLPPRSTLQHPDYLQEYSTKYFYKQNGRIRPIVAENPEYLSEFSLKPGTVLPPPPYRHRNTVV

[8] = biological target: IGF1R (Homo sapiens, UniProt P08069); experiment: Tyrosine kinase inhibition rate (ELISA), IGF1R; type: biochemical; conditions: read-out: Inhibtion rate (%) IGF1R
[9] = biological target: T1, c-Met kinase (Homo sapiens, UniProt P08581); experiment: Inhibitory effect on c-Met kinase activity at molecular level (ELISA); type: biochemical;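 note: recombinant c-Met kinase domain with 5 µM ATP, 1 h at 37 °C, substrate phosphorylation detected by anti-phosphotyrosine PY99 ELISA at 490 nm versus DMSO negative control, ATP-free wells as blank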
T1 construct: c-Met kinase domain recombinant protein diluted with 49 μL of the reaction buffer was added
T1 sequence (P08581 1078-1345 limits assumed): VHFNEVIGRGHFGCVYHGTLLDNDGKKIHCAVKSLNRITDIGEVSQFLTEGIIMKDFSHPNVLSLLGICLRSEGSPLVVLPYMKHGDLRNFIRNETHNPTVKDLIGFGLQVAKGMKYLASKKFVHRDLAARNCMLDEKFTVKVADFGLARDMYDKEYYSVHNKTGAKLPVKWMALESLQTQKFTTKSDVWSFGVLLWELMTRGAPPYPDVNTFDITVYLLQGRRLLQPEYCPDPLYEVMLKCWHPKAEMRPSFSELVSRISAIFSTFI

[10] = tested on: EBC-1 cells; experiment: Inhibition of c-Met-mediated EBC-1 cell proliferation (SRB staining); type: cell-based; conditions: Homo sapiens, 72 hours treatment
Protocol: The inhibitory effect of the compounds on the growth of non-small cell cancer EBC-1 cell (a cell line in which Met is continually activated due to the amplification of MET gene, and is a Met-dependent tumor cell line) was measured by sulforhodamine B (SRB) staining assay. A certain amount of EBC-1 cells in their logarithmic growth phase were seeded in 96-well plates at 90 μL per well and cultured overnight, then 10 μL of different concentrations of compounds or solvent control were added thereto, three wells for each concentration. After treated by the compound for 72 hours, the adherent cells were removed of culture medium and fixed with 10% (w/v) trichloroacetic acid (100 μL/well) at 4° C. for 1 hr followed by rinsing with distilled water five times. After drying at room temperature, 100 μL of SRB solution (dissolved in 1% glacial acetic acid at 4 mg/mL) was added to each well to incubate and stain the cells for 15 min at room temperature, then unbound SRB was washed off with 1% glacial acetic acid for five times. After drying at room temperature, 100 μL of 10 mM Tris solution was added to each well. The optical density (OD value) at 515 nm was read on a VERSMax microplate reader. […] The experiment was repeated twice. The IC50 data was calculated as a range based on the test results of concentrations set in the initial screening test.

[11] = Pharmacokinetic test in rats; type: in vivo, Sprague-Dawley rats; conditions: male, Sprague-Dawley, plasma, rat; for MRT: read-out: MRT
Protocol: 14 male Sprague-Dawley rats, weigh 200-220 g, were randomly divided into 4 groups with 4/3 in each group. The rats were intragastrically and intravenously administered with compound 7S and 8S respectively. The compounds were dissolved in normal saline containing 5% of DMSO and solubilized with 5% of tween-80 (Tween 80), and the final concentration of the sample was 1 mg/ml.
The rats were fasted 12 h before the test, free drinking water. They were fed 2 h after administration.
gavage administration: 0.25 h, 0.5 h, 1.0 h, 2.0 h, 3.0 h, 4.0 h, 6.0 h, 8.0 h and 24 h after administration;
intravenous administration: 5 min, 0.25 h, 0.5 h, 1.0 h, 2.0 h, 4.0 h, 6.0 h, 8.0 h and 24 h after administration;
0.3 ml venous blood was collected from the retrobulbar venous plexus of rats at the above time point, and placed in a heparinized tube and centrifuged at 11000 rpm for 5 min. The plasma was separated and frozen in a refrigerator at −20° C.
The concentrations of the compounds in rat plasma were measured by LC/MS/MS.
Pharmacokinetic parameters after administration were calculated using the non-compartmental model of the Phoenix 1.3 software (Pharsight, U.S.A.).
Peak concentration Cmax and peak time Tmax were the measured values;
The area under the curve of the drug concentration vs. time AUC0-t value: calculated according to trapezoidal rule; AUC0-∞=AUC0-t+Ct/ke, Ct is the plasma concentration at the last measurable time point, ke is the elimination rate constant;
Elimination half-life t1/2=0.693/ke;
Average retention time MRT=AUMC/AUC.
Clearance rate CL=D/AUC0-∞;
Volume of distribution at steady state Vss=CL×MRT

[12] = po, intragastric (gavage) 10 mg/kg, mean

Compound: AZD4547 [reference compound]
Inhibtion rate (%) FGFR1 [1]: 100%

inhibition at 1 µM [2]: 77.4% | inhibition at 1 µM [3]: 54.8% | inhibition at 1 µM [4]: 55.6% | inhibition at 1 µM [5]: 80.6%
Compound: CCN(CC)CCNC(=O)c1c(C)[nH]c(/C=C2\C(=O)Nc3ccc(F)cc32)c1C [Su11248, reference compound]

Compound: C[C@@H](Oc1cc(-c2cnn(C3CCNCC3)c2)cnc1N)c1c(Cl)ccc(F)c1Cl [PF2341066, Crizotinib, reference compound]
TV (mm^3, mean ± SD) d0 ([6]; d0): 123 ± 25 mm^3 | Weight (g) d0 ([6]; d0): 17.2 g | RTV (mean ± SD) ([6]; d21): 0.00 ± 0.00 | T/C (%) ([6]; d21): 0.00% | TV (mm^3, mean ± SD) d21 ([6]; d21): 0 ± 0 mm^3 | Weight (g) d21 ([6]; d21): 19.6 g

inhibition at 1 µM [7]: 71.1%
Compound: CN(C)C/C=C/C(=O)Nc1cc2c(Nc3ccc(F)c(Cl)c3)ncnc2cc1O[C@H]1CCOC1 [BIBW2992, reference compound]

inhibition at 1 µM [8]: 70.9%
Compound: Nc1ncnc2c1c(-c1cccc(OCc3ccccc3)c1)cn2[C@H]1C[C@@H](CN2CCC2)C1 [AEW541, reference compound]

IC50 [9]: 1 to 10 nM | bioavailability ([11]; oral, gavage 10 mg/kg vs intravenous 5 mg/kg, read-out: F (absolute bioavailability)): 38.6% | AUC(0-inf) [11, 12]: 6870 ng·h/mL | AUC(0-t) [11, 12]: 6780 ng·h/mL | Cmax [11, 12]: 2060 ng/mL | Tmax [11, 12]: 1.25 h | half-life [11, 12]: 1.49 h | AUC(0-inf) ([11]; intravenous 5 mg/kg, mean): 8810 ng·h/mL | AUC(0-t) ([11]; intravenous 5 mg/kg, mean): 8770 ng·h/mL | clearance ([11]; intravenous 5 mg/kg, mean): 9.58 mL/min/kg | half-life ([11]; intravenous 5 mg/kg, mean): 1.15 h | Vd ([11]; intravenous 5 mg/kg, mean, read-out: Vss): 0.667 L/kg | MRT ([11]; iv, 5 mg/kg, intravenous 5 mg/kg, mean): 1.17 h | MRT ([11]; po, 10 mg/kg, intragastric (gavage) 10 mg/kg, mean): 2.71 h
Compound: O=C(Nc1ccc(F)cc1)C1(C(=O)Nc2ccc(Oc3ccnc4cc(OCCCN5CCOCC5)ncc34)c(F)c2)CC1 [Compound 8S]
IC50 [10]: 10 to 100 nM

IC50 [9]: 1 to 10 nM
Compound: O=C(Nc1ccc(F)cc1)C1(C(=O)Nc2ccc(Nc3ccnc4cc(OCCN5CCOCC5)ncc34)cc2)CC1 [Compound 13S, N-(4-fluorophenyl)-N-(4-((7-(2-morpholinoethoxy)-1,6-naphthyridin-4-yl)amino)phenyl)cyclopropyl-1,1-dicarboxamide]
IC50 [10]: 100 to 1000 nM

IC50 [9]: 10 to 100 nM
Compound: O=C(Nc1ccc(F)cc1)C1(C(=O)Nc2ccc(Oc3ccnc4nc(Cl)cnc34)c(F)c2)CC1 [Compound 55S, N-(4-((3-chloropyrido[2,3-b]pyrazin-8-yl)oxy)-3-fluorophenyl)-N-(4-fluorophenyl)cyclopropyl-1,1-dicarboxamide]
IC50 [10]: 1000 to 10000 nM

IC50 [9]: 10 to 100 nM
Compound: CC(CN1CCOCC1)Oc1cc2nccc(Oc3ccc(NC(=O)C4(C(=O)Nc5ccc(F)cc5)CC4)cc3F)c2cn1 (stereo not drawn) [Compound 26S, N-(3-fluoro-4-((7-((1-morpholinopropan-2-yl)oxy)-1,6-naphthyridin-4-yl)oxy)phenyl)-N-(4-fluorophenyl) cyclopropyl-1,1-dicarboxamide]
IC50 [10]: 100 to 1000 nM

IC50 [9]: 1 to 10 nM
Compound: CN1CCN(c2cnc3c(Oc4ccc(NC(=O)C5(C(=O)Nc6ccc(F)cc6)CC5)cc4F)ccnc3n2)CC1 [Compound 59S, N-(3-fluoro-4-((3-(4-methylpiperazin-1-yl)pyrido[2,3-b]pyrazin-8-yl)oxy)phenyl)-N-(4-fluorophenyl)cyclopropyl-1,1-dicarboxamide]
IC50 [10]: 100 to 1000 nM

IC50 [9]: 10 to 100 nM
Compound: O=C(Nc1ccc(F)cc1)C1(C(=O)Nc2ccc(Oc3ccnc4nc(OCCN5CCOCC5)cnc34)c(F)c2)CC1 [Compound 60S, N-(3-fluoro-4-((3-(2-morpholinoethoxy)pyrido[2,3-b]pyrazin-8-yl)oxy)phenyl)-N-(4-fluorophenyl)cyclopropyl-1,1-dicarboxamide]
IC50 [10]: 1000 to 10000 nM

IC50 [9]: 10 to 100 nM
Compound: O=C(Nc1ccc(F)cc1)C1(C(=O)Nc2ccc(Oc3ccnc4nc(N5CCOCC5)cnc34)c(F)c2)CC1 [Compound 57S]
IC50 [10]: 1000 to 10000 nM

IC50 [9]: 1 to 10 nM
Compound: O=C(Nc1ccc(F)cc1)C1(C(=O)Nc2ccc(Oc3ccnc4ncc(NCCCN5CCOCC5)nc34)c(F)c2)CC1 [Compound 63S, N-(3-fluoro-4-((2-((3-morpholinopropyl)amino)pyrido[2,3-b]pyrazin-8-yl)oxy)phenyl)-N-(4-fluorophenyl) cyclopropyl-1,1-dicarboxamide]
IC50 [10]: 1000 to 10000 nM
